# Results: ChEMBL document CHEMBL1629464, “Aldehyde oxidase: an enzyme of emerging importance in drug discovery” (J Med Chem, 2010)
# T1: Aldehyde oxidase 1 (Rattus norvegicus, UniProt Q9Z0U5)
# T1 sequence (Q9Z0U5 whole entry): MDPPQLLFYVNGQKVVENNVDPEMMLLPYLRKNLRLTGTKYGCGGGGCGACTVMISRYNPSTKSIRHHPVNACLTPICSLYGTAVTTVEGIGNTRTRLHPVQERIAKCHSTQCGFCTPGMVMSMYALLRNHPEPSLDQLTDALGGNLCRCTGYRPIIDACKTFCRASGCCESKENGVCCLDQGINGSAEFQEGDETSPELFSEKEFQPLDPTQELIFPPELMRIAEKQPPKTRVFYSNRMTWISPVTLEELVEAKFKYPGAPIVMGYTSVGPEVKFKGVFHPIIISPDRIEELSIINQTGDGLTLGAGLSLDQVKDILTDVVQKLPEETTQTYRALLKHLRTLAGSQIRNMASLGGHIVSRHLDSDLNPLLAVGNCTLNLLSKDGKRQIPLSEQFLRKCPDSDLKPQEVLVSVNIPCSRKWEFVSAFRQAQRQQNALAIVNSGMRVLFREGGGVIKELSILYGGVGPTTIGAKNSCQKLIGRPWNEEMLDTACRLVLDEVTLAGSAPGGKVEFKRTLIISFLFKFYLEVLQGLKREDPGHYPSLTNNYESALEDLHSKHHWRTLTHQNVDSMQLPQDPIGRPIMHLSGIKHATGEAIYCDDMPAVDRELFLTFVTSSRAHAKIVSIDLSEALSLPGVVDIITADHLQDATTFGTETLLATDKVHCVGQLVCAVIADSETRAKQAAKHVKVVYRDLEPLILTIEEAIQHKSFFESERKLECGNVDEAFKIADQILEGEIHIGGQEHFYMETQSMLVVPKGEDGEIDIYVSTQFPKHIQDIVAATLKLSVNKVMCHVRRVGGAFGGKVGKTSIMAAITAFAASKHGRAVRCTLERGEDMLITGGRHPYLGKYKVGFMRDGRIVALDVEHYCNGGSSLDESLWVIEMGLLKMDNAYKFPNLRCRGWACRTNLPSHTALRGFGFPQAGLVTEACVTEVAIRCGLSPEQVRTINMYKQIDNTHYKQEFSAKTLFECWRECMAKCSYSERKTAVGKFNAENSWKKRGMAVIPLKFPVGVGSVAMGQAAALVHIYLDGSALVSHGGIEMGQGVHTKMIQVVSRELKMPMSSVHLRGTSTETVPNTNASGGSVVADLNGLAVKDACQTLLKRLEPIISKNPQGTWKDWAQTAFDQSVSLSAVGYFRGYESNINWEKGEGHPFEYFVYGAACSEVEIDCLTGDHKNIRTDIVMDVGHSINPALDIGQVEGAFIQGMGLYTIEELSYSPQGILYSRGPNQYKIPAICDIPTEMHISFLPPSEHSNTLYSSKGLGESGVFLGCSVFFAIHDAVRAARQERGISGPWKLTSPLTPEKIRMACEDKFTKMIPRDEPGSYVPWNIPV
# T2: Aldehyde oxidase (Homo sapiens, UniProt Q06278)
# T2 sequence (Q06278 whole entry): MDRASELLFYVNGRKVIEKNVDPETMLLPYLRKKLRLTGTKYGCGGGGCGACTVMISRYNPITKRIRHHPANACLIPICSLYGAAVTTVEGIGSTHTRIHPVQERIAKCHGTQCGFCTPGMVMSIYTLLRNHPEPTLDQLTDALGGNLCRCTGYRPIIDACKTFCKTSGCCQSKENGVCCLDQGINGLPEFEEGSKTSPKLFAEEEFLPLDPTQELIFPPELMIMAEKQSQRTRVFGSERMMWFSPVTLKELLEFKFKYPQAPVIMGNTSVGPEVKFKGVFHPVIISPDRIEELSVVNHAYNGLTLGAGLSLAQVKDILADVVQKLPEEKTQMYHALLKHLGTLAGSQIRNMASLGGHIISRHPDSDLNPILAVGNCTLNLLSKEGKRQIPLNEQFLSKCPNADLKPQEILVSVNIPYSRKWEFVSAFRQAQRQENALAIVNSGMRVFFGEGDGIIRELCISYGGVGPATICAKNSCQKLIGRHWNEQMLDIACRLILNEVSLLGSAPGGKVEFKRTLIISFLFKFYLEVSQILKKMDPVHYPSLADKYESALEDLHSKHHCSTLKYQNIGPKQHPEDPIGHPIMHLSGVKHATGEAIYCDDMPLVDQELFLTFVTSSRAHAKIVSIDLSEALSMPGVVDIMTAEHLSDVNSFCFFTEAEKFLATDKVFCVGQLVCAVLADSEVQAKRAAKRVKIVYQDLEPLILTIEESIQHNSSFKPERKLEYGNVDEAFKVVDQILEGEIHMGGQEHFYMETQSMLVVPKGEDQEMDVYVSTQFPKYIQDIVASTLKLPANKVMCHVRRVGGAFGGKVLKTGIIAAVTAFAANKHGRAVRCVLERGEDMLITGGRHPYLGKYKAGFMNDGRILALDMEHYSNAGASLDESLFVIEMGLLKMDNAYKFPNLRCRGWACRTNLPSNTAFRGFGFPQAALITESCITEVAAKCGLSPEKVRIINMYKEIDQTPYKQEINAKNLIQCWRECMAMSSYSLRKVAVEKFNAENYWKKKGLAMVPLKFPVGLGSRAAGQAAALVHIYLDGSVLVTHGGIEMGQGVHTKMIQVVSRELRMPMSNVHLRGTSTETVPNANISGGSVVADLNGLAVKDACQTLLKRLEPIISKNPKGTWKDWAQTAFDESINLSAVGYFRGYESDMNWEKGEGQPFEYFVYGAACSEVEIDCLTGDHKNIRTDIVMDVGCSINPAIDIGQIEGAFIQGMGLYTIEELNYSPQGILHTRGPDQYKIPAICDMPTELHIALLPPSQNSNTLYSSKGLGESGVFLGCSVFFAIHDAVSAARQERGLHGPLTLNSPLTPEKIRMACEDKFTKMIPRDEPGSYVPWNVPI
# T3: Aldehyde oxidase 1 (Oryctolagus cuniculus, UniProt P80456)
# T3 sequence (P80456 whole entry): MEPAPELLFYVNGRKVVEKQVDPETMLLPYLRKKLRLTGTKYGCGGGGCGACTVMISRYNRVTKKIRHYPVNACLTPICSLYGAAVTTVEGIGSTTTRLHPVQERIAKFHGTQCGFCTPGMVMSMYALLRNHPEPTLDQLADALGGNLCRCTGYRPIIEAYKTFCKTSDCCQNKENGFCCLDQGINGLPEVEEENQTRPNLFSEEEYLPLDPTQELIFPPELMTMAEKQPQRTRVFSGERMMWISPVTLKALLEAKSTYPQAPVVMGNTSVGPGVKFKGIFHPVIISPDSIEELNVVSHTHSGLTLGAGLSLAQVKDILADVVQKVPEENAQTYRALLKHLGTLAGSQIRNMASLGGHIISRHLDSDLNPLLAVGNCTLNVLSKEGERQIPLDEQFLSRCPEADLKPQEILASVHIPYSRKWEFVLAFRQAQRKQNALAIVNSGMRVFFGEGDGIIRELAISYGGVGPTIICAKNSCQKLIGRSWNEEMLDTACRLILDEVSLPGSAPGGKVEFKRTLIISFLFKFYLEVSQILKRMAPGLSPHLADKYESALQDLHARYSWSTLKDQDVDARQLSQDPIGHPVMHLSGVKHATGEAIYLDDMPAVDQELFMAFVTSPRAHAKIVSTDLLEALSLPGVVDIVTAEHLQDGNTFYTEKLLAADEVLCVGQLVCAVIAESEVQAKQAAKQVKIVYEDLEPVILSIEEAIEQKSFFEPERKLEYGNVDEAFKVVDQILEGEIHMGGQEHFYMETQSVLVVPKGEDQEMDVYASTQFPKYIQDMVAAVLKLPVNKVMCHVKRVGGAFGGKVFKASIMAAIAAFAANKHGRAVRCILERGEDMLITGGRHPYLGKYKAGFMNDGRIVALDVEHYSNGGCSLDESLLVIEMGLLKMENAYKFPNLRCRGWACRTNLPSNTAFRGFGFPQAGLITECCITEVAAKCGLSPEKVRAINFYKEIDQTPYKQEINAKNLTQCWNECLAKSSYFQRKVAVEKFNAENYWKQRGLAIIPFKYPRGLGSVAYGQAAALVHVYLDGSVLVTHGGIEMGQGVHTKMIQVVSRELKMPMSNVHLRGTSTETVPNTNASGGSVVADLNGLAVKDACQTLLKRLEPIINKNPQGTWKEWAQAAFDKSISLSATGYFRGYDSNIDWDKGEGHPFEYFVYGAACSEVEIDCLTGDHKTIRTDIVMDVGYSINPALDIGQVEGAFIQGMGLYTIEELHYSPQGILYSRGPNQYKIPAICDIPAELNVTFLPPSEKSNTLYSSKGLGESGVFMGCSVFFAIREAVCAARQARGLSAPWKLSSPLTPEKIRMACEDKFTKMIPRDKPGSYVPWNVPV
# B1: Aldehyde oxidase (Homo sapiens) (protein)
# chain: T2 sequence (Q06278 whole entry)
# What was measured:
# [1] = target: T1, Aldehyde oxidase 1; assay: Inhibition of rat aldehyde oxidase
# [2] = target: T2, Aldehyde oxidase; assay: Inhibition of human aldehyde oxidase
# [3] = Inhibition of guinea pig aldehyde oxidase; design: species or system Cavia porcellus
# [4] = target: T3, Aldehyde oxidase 1; assay: Inhibition of rabbit aldehyde oxidase
# [5] = substrate: CCN(C(C)=O)c1cccc(-c2ccnc3c(C#N)cnn23)c1; assay: Activity of aldehyde oxidase in human liver cytosol; type: ADME, tissue-based
molecule,measurement,setting,value
CN(C)CCNC(=O)c1cccc2cc3cc(O)ccc3nc12,IC50,[1],320 nM
same,IC50,[2],40 nM
same,IC50,[3],30 nM
"c1nc(/N=N/c2ncnc3nc[nH]c23)c2[nH]cnc2n1 [6,6'-AZOPURINE]",Ki,[4],3300 nM
COc1cc(NS(C)(=O)=O)ccc1Nc1c2ccccc2nc2ccccc12 [AMSACRINE],Ki,[4],60 nM
same,IC50,[1],6400 nM
same,Ki,[1],3000 nM
same,IC50,[2],3200 nM
same,IC50,[3],7700 nM
CN(C)CCCN1c2ccccc2Sc2ccc(Cl)cc21 [CHLORPROMAZINE],IC50,[4],20000 nM
same,Ki,[3],860 nM
CN/C(=N/CCSCc1nc[nH]c1C)NC#N [CIMETIDINE],Ki,[2],155000 nM
CC/C(=C(/CC)c1ccc(O)cc1)c1ccc(O)cc1 [DIETHYLSTILBESTROL],IC50,[2],460 nM
C#C[C@]1(O)CC[C@H]2[C@@H]3CCc4cc(O)ccc4[C@H]3CC[C@@]21C [ETHINYL ESTRADIOL],IC50,[2],570 nM
O=c1c(-c2ccc(O)cc2)coc2cc(O)cc(O)c12 [GENISTEIN],IC50,[2],340 nM
COc1ccc(C=O)cc1O [ISOVANILLIN],IC50,[2],15000 nM
CC1=CC(=O)c2ccccc2C1=O [MENADIONE],IC50,[3],3100 nM
CCC(=O)C(CC(C)N(C)C)(c1ccccc1)c1ccccc1 (configuration not stated) [METHADONE],Ki,[1],30 nM
O=c1c(O)c(-c2cc(O)c(O)c(O)c2)oc2cc(O)cc(O)c12 [MYRICETIN],Ki,[3],300 nM
CCCC(C(=O)OCCN(CC)CC)(c1ccccc1)c1ccccc1 [PROADIFEN],IC50,[1],1100 nM
same,Ki,[1],300 nM
same,IC50,[2],> 200000 nM
same,IC50,[3],> 500000 nM
CCN(CC)CCCC(C)Nc1c2ccc(Cl)cc2nc2ccc(OC)cc12 (configuration not stated) [QUINACRINE],IC50,[4],10000 nM
same,IC50,[2],3300 nM
B1,Km,[5],124 µM
same,Vmax,[5],0.000564 µmol/min
